Target: CDK2 (UniProt P24941)
Experiment: Enzyme Assay

Ki [nM] | Compound
< 500 | CN(Cc1ccccc1)c1cc(-n2cnc(Nc3ccccc3)n2)ccn1
< 500 | CCNC(=O)Nc1ccc(Nc2ncn(-c3ccnc(N4C[C@@H](C)N(C(C)=O)[C@@H](C)C4)c3)n2)cc1
< 500 | CC(C)CCN(C)c1cc(-n2cnc(Nc3ccccc3)n2)ccn1
< 500 | CCCNC(=O)Nc1ccc(Nc2ncn(-c3ccnc(N4C[C@@H](C)N(C(C)=O)[C@@H](C)C4)c3)n2)cc1
< 500 | CC(=O)N1[C@H](C)CN(c2cc(-n3cnc(Nc4ccccc4)n3)ccn2)C[C@@H]1C
< 500 | CC1CCCN1c1cc(-n2cnc(Nc3ccccc3)n2)ccn1 (stereo not given)
500 to 1000 | CC(=O)N1[C@H](C)CN(c2cc(-n3cnc(Nc4ccc(NC(=O)c5ccco5)cc4)n3)ccn2)C[C@@H]1C
> 1000 | CC(C)(C)CC(=O)Nc1cc(-n2cnc(Nc3ccccc3)n2)ccn1
500 to 1000 | COc1cc(Nc2ncn(-c3ccc(C#N)cc3)n2)cc(OC)c1OC
> 1000 | CC(=O)N1[C@H](C)CN(c2cc(-n3cnc(Nc4ccccc4)n3)ncn2)C[C@@H]1C
500 to 1000 | CC(=O)N1CCCN(c2cc(-n3cnc(Nc4ccccc4)n3)ccn2)CC1
< 500 | CCN(CCO)c1cc(-n2cnc(Nc3ccccc3)n2)ccn1
< 500 | CC(=O)N1[C@H](C)CN(c2cc(-n3cnc(Nc4ccc(NC(=O)c5cccs5)cc4)n3)ccn2)C[C@@H]1C
500 to 1000 | CC(=O)N1[C@H](C)CN(c2cc(-n3cnc(Nc4ccc(NC(=O)OCC(C)C)cc4)n3)ccn2)C[C@@H]1C
> 1000 | CN(C)CCCN(C)c1cc(-n2cnc(Nc3ccccc3)n2)ccn1
< 500 | O=C(Cc1ccccc1)Nc1cc(-n2cnc(Nc3ccccc3)n2)ccn1
> 1000 | c1ccc(-n2cnc(Nc3ccnc(NCCN4CCOCC4)c3)n2)cc1
500 to 1000 | O=C(CCc1ccccc1)Nc1cc(-n2cnc(Nc3ccccc3)n2)ccn1
< 500 | CCCN(CCO)c1cc(-n2cnc(Nc3ccccc3)n2)ccn1
> 1000 | O=c1[nH]c2ccccc2n1C1CCN(c2cc(-n3cnc(Nc4ccccc4)n3)ccn2)CC1
> 1000 | CCOC(=O)c1ccc(Nc2ncn(-c3ccnc(N4CCCN(C(C)=O)CC4)c3)n2)cc1
> 1000 | CCCC(=O)N1CCCN(c2cc(-n3cnc(Nc4ccccc4)n3)ccn2)CC1

Ki [nM] | Compound
500 to 1000 | CC(=O)N1[C@H](C)CN(c2cc(-n3cnc(Nc4ccc(NC(=O)NC(C)(C)C)cc4)n3)ccn2)C[C@@H]1C
< 500 | CC(=O)N1[C@H](C)CN(c2cc(-n3cnc(Nc4ccc(NC(=O)C(F)(F)F)cc4)n3)ccn2)C[C@@H]1C
> 1000 | c1ccc(-n2cnc(Nc3ccc(N4CCOCC4)nc3)n2)cc1
> 1000 | C[C@@H]1CN(c2cc(-n3cnc(Nc4ccccc4)n3)ncn2)C[C@H](C)N1
> 1000 | O=C(C1CCCO1)N1CCN(c2cc(-n3cnc(Nc4ccccc4)n3)ccn2)CC1 (stereo not given)
> 1000 | CC(C)Oc1cccc(Nc2ncn(-c3ccccc3)n2)c1
> 1000 | CN1CCN(c2ccc(Nc3ncn(-c4ccccc4)n3)cn2)CC1
500 to 1000 | CC(=O)N1[C@H](C)CN(c2cc(-n3cnc(Nc4ccc(N5CCN(S(=O)(=O)c6ccc(C)cc6)CC5)cc4)n3)ccn2)C[C@@H]1C
> 1000 | c1ccc(-n2cnc(Nc3ccc(N4CCOCC4)cc3)n2)cc1
> 1000 | CC(=O)N1[C@H](C)CN(c2cc(-n3cnc(Nc4ccc(NC(=O)N(C)C)cc4)n3)ccn2)C[C@@H]1C
500 to 1000 | CC(=O)N1[C@H](C)CN(c2cc(-n3cnc(Nc4ccc(NC(=O)OC(C)C)cc4)n3)ccn2)C[C@@H]1C
< 500 | N#CCC(=O)N1CCCN(c2cc(-n3cnc(Nc4ccccc4)n3)ccn2)CC1
< 500 | c1ccc(Nc2ncn(-c3ccnc(N4CCCCC4)c3)n2)cc1
< 500 | CN(Cc1cccnc1)c1cc(-n2cnc(Nc3ccccc3)n2)ccn1
500 to 1000 | O=C(Nc1cc(-n2cnc(Nc3ccccc3)n2)ccn1)C1CCCCC1
< 500 | c1ccc(Nc2ncn(-c3ccnc(N4CCCCCC4)c3)n2)cc1
500 to 1000 | CN1C(C)(C)CC(Nc2cc(-n3cnc(Nc4ccccc4)n3)ccn2)CC1(C)C
> 1000 | c1ccc(-n2cnc(Nc3ccc4c(c3)OCCO4)n2)cc1
500 to 1000 | c1ccc(-n2cnc(Nc3ccnc(N4CCOCC4)c3)n2)cc1
< 500 | c1ccc(Nc2ncn(-c3ccnc(NC4CCCCC4)c3)n2)cc1
< 500 | CC(=O)N1[C@H](C)CN(c2cc(-n3cnc(Nc4ccc(NC(=O)NC(C)C)cc4)n3)ccn2)C[C@@H]1C
> 1000 | CCN(CC)CCNc1cc(-n2cnc(Nc3ccccc3)n2)ccn1

Ki [nM] | Compound
> 1000 | COc1cc(Nc2ncn(-c3ccccc3)n2)cc(OC)c1OC
> 1000 | COCC(=O)N1CCCN(c2cc(-n3cnc(Nc4ccccc4)n3)ccn2)CC1
< 500 | CCOC(=O)Nc1ccc(Nc2ncn(-c3ccnc(N4C[C@@H](C)N(C(C)=O)[C@@H](C)C4)c3)n2)cc1
> 1000 | CC(C)CC(=O)N1CCCN(c2cc(-n3cnc(Nc4ccccc4)n3)ccn2)CC1
< 500 | CCCOC(=O)Nc1ccc(Nc2ncn(-c3ccnc(N4C[C@@H](C)N(C(C)=O)[C@@H](C)C4)c3)n2)cc1
> 1000 | CCOc1ccc(Nc2ncn(-c3ccccc3)n2)cc1
< 500 | COC(=O)Nc1ccc(Nc2ncn(-c3ccnc(N4C[C@@H](C)N(C(C)=O)[C@@H](C)C4)c3)n2)cc1
< 500 | CC(=O)N1[C@H](C)CN(c2cc(-n3cnc(Nc4ccc(N5CCN(C(=O)OC(C)(C)C)CC5)cc4)n3)ccn2)C[C@@H]1C
500 to 1000 | CC(=O)N1[C@H](C)CN(c2cc(-n3cnc(Nc4ccc(NC(=O)OCC(C)(C)C)cc4)n3)ccn2)C[C@@H]1C
< 500 | CN(CCO)c1cc(-n2cnc(Nc3ccccc3)n2)ccn1
< 500 | c1ccc(Nc2ncn(-c3ccnc(N4CCCCCCC4)c3)n2)cc1
< 500 | CC(=O)N1[C@H](C)CN(c2cc(-n3cnc(Nc4ccc(N)cc4)n3)ccn2)C[C@@H]1C
> 1000 | CC(=O)N1CCCN(c2cc(-n3cnc(Nc4ccccc4)n3)ncn2)CC1
500 to 1000 | CCOC(=O)c1ccc(Nc2ncn(-c3ccnc(N4C[C@@H](C)N(C(C)=O)[C@@H](C)C4)c3)n2)cc1
< 500 | CC(=O)N1[C@H](C)CN(c2cc(-n3cnc(Nc4ccc(N5CCOCC5)cc4)n3)ccn2)C[C@@H]1C
< 500 | OC[C@H]1CCCN(c2cc(-n3cnc(Nc4ccccc4)n3)ccn2)C1
> 1000 | O=C(CC1CCCC1)Nc1cc(-n2cnc(Nc3ccccc3)n2)ccn1
> 1000 | CC(C)C(=O)N1CCCN(c2cc(-n3cnc(Nc4ccccc4)n3)ccn2)CC1
> 1000 | CCC(=O)N1CCCN(c2cc(-n3cnc(Nc4ccccc4)n3)ccn2)CC1
> 1000 | CCOc1cccc(Nc2ncn(-c3ccccc3)n2)c1
< 500 | COCCN(C)c1cc(-n2cnc(Nc3ccccc3)n2)ccn1

Source: the Kinase Knowledgebase extract (Sharma et al. 2016)
